The results in this text go back to US11685726B2, “Pharmaceutical compositions of 6-(2-(2H-tetrazol-5-yl)ethyl)-6-fluorodecahydroisoquinoline-3-carboxylic acid and ester derivatives thereof” (Sea Pharmaceuticals LLC, priority 2020, dated 2023).

Structures are written as SMILES.

The subject of data set [1] is 6 Hz psychomotor seizure model in mice. The experiment in a line: 6 Hz psychomotor seizure model in mice. It counts as in vivo, mouse. The note with it: 0.5 hours, SPHA. The text has this:
Adult male Carworth Farms (CF-1) mice (25-35 g) or young male Sprague-Dawley (SD) rats (100-150 g) were obtained from Charles River Laboratories Inc (Wilmington Mass. USA). CF1 mice were typically used for the 6 Hz psychomotor seizure model (6 Hz model described in the section below) but could also be used for the Maximal electroshock seizure (MES) model if performed in mice (Maximal electroshock seizure model described in the section below). SD rats were typically used for MES model but could also be used for 6 Hz psychomotor model if performed in rats. Animals were allowed free access to food and water, except during testing periods. After delivery from supplier lab to the in vivo pharmacology testing lab, animals were allowed sufficient time to acclimate to housing conditions prior to testing. Animals were housed in plastic cages in rooms with controlled humidity, ventilation, and lighting (12 hours lights on and 12 hours darkness). The animals were housed and fed in a manner consistent with the recommendations in the “Guide for Care and Use of Laboratory Animals” (National Research Council), and in accordance with guidelines set by an Institutional Animal Care and Use Committee (IACUC). Animal experiments were conducted in a manner consistent with Animal Research: Reporting of In Vivo Experiments (ARRIVE) guidelines (UK) and were approved by an IACUC. Test compounds or respective vehicle (placebo) were administered using an optimal fluid volume-to-body fluid ratio. Solutions or suspensions of test compounds, reference compounds or vehicles were administered to mice or rats in a volume of 0.01 mL/g body weight (mice) or 0.004 mL/g body weight (rats) by subcutaneous (s.c.) injection, intraperitoneal (i.p.) injection or by oral gavage (p.o.) unless otherwise indicated. Reference drug Levetiracetam or vehicle was administered by intraperitoneal (i.p.) injection.
Mice are given a topical anesthetic on the cornea of each eye prior to placement of corneal electrodes. 6 Hz psychomotor seizures were induced in mice (usually 8 animals per group) using electrical stimulation via corneal electrodes (6 Hz, 0.2 millisecond rectangular pulse, 3 second duration at 22 mA using a Grass 48 stimulator instrument as described in Barton M E et al 2001. Epilepsy Res 47:217-227). Prior to placement of corneal electrodes for electrical stimulation 0.5% tetracaine in saline (Sigma) drops were applied to each eye. Seizures and behaviors that arise from the electrical stimulus in the 6 Hz model include a minor clonic seizure phase followed by stereotyped automatistic behaviors including stun, forelimb clonus, twitching of the vibrissae and Straub-tail. […] Animals not presenting any of these behaviors were considered “protected” from seizures. This serves as a screen for in vivo pharmacological activity of test articles or reference anti-epilepsy drugs and defines anti-seizure activity as shown in several publications [Barton M E et al. 2001. Epilepsy Res. 47:217-227; Barton M E et al. 2003 Epilepsy Res. 56:17-26; Brown W C et al. 1953. J Pharmacol Exp Ther 107:273-283. Metcalf C S et al. 2017a. Epilepsia 58:484-493.; Metcalf C S et al. 2017c. Epilepsia 58:239-246.
Unless otherwise indicated pretreatment times of mice or rats were typically 0.5 hours for respective vehicle, Compounds 1, 3, 4, 6 or other compounds administered by subcutaneous or intraperitoneal route (unless other times indicated). A pretreatment time of 1 hour was used for Compounds 3, 4, 6 or other compounds administered by oral route unless other times indicated. Test compounds or respective vehicles were tested in some cases at other pretreatment times as indicated. A median effective dose (ED50) and 95% confidence interval (CI) were calculated using a Prism (Graphpad software). […]

The nature of data set [2]: Hydrolysis by rat plasma in vitro at 37 degrees C. It counts as in vitro ADME.
Data set [3] is described as follows: In vitro stability in physiological buffers with or without fatty acid free BSA. It counts as physicochemical. The note with it: 30 minutes at 37 degrees C.
The nature of data set [4]: Irwin neurological test battery in rats (SAD and MAD studies). It counts as in vivo, rat. As for the experimental part:
Rats were subjected to the Irwin Test Procedure of in vivo assessment of test compounds effects on neurological functions in rodents which was modified for rats. Rats were acclimated to the procedure room for at least 30 minutes. Rats were assessed for the features described below. Each rat was scored on a 0 to 3 scale with 0 representing the response in a normal animal and 3 representing a maximally impaired animal. Note that it is normal for an animal to score within the 0 to 1 range during Irwin testing. Animals were tested 55-60 min after test compound administration. Reference: Irwin, S. 20 Sep. 1968; “Comprehensive observational assessment: la. A symptomatic quantitative procedure for assessing the behavioral and physiologic state of the mouse” Psychopharmacologia 13(3): 222-257.
Single Ascending Dose (SAD) 1-day acute administration of test compound 2 by the oral PO route of administration to rats and samples collected at the timepoints described for subsequent extraction, dissolution and quantitative LCMS bioanalysis. […]
Multiple Ascending Dose (MAD) 5-day once daily administration of test compounds was done to rats and samples collected at the timepoints described for subsequent extraction, dissolution and quantitative LCMS bioanalysis. […]

For the compound `O=C(O)[C@@H]1C[C@H]2C[C@@](F)(CCc3nnn[nH]3)CC[C@H]2CN1` [Compound 1, (3S,4aS,6S,8aR)-6-fluoro-6-[2-(1H-1,2,3,4-tetrazol-5-yl)ethyl]-decahydroisoquinoline-3-carboxylic acid], the “6 Hz Test Results (# mice protected from seizure/# mice tested)” value is 1/8 in data set [1] (0.3 mg/kg s.c.); 3/8 in data set [1] (0.6 mg/kg s.c.); 3/8 in data set [1] (1 mg/kg s.c.); 5/8 in data set [1] (3 mg/kg s.c.); 7/8 in data set [1] (6 mg/kg s.c.); 8/8 in data set [1] (10 mg/kg s.c.).
As for `O=C(O)[C@@H]1C[C@H]2CC(F)(CCc3nnn[nH]3)CC[C@H]2CN1` (stereo in doubt) [Compound 2, (3S,4aS,6R,8aR)-6-fluoro-6-[2-(1H-1,2,3,4-tetrazol-5-yl)ethyl]-decahydroisoquinoline-3-carboxylic acid], the “hydrolysis to Compound 1 by rat plasma in vitro” value in data set [2] (incubated at 37 degrees C) is “within minutes”. Besides, in data set [2] (plasma pretreated 37 degrees C 5 min with 10 micromolar methyl arachidonoyl fluoro phosphonate), the “hydrolysis by rat plasma after esterase inhibitor pretreatment” value was “blocked”. Besides, the “stability in physiological buffers” value in data set [3] was “stable”. Also, in data set [4] (oral 10-200 mg/kg, day 1, 55-60 minutes post treatment), the “Irwin test observations, SAD study” value is “Normal or very little change from normal was observed for many of the doses”. Moreover, the “Irwin test observations, MAD study” value in data set [4] (oral once daily 5 days, day 3 and day 5, 55-60 minutes post treatment) is recorded as “Normal or very little change from normal was observed for many of the doses”.
